From article PMC11187217, “Anti-adhesive, anti-biofilm and fungicidal action of newly synthesized gemini quaternary ammonium salts” (Scientific Reports, 2024)

System: Salmonella Typhimurium TA100
Details: TA100, positive control 15 μg/mL
Experimental: The mutagenic potential of the tested gemini QAS was determined using the Ames test[83] using Salmonella Typhimurium TA98 and Salmonella Typhimurium TA100 with defects in histidine biosynthesis. The culture of S. Typhimurium TA98 and S. Typhimurium TA100 was incubated with shaking at 37 °C for 18 h, centrifuged (3000 rpm, 5 min) and OD = 1.5 was determined, at a wavelength of λ = 590 nm. The agar was dissolved and cooled to 42 °C. […] The media were incubated for 48 h at 37 °C. The positive control for the S. Typhimurium TA98 strain was acriflavin (100 μg/ml), and for the S. Typhimurium TA100 strain, sodium azide (15 μg/ml). The negative control was the culture without tested compound and with NaCl (0,9%). After incubation, the colonies were counted and the mutagenicity index (MR) was determined—the ratio of the number of revertants resulting from the mutagenic effect of the tested compound to the number of spontaneous revertants. Experiment was performed in three repetitions.

[N-]=[N+]=[N-].[Na+] [sodium azide, reference compound]
Mutagenicity ratio (MR): 25.5 | Number of colonies (± SD): 5116.0 ± 5.66
